Article PMC6370856, “Peptidyl prolyl cis/trans isomerase activity on the cell surface correlates with extracellular matrix development” (Communications Biology, 2019)

How the values were obtained:
fibrin hydrogel = assay: Stiffness (storage modulus) of fibrin gel by rheometer
Procedure: To minimize sample evaporation at 37 °C, a tissue paper wet in HEPEs buffer (10 mM, pH 7.8) was placed inside the H-PTD chamber to increase the humidity. […] The cone and plate were treated with plasma for 5 min to increase the hydrophilicity of the metal surface.
Fibrin gel: Fibrinogen (Shanghai Laishi Xuezhipin Limited Company) was dissolved in PBS with a concentration of 22.2 mg mL^−1 overnight at room temperature with gentle shaking and aliquoted in protein low-binding tubes (45 µL per tube). […] Fifty microliters of thrombin (4 EU mL^−1 in PBS with 1.8 mM CaCl2) was added and pipetted up and down ten times. Then, it was transferred to the rheometer plate for measurement. […] For each condition, two independent experiments were performed (Fig. 1a and Supplementary Fig. 1).

[1] = tested on: PBMC samples from healthy donors, mixed; assay: PACS in a two-way mixed lymphocyte reaction; type: cell-based, human; details: for cell surface PPIase activity k, Exp. 1 / cell surface PPIase activity k, Exp. 2 / cell surface PPIase activity k, Exp. 3 / cell surface PPIase activity k, Exp. 4 / cell surface PPIase activity k, Mean: 24 hours
Procedure: PACS were measured with four PBMC samples from healthy donors or with all six different combinations. […] After 24 h, diminished activity was detected in all combinations (Fig. 6d). For two combinations, no trace of activity could be detected, resembling the results from some primary samples of leukemia cells.
Mixed lymphocyte reaction is a routine assay used to measure the safety of implantable materials and the effect of immunosuppressive treatments. The PACS assay could become an alternative test, within a relatively short period of time, avoiding the use of biochemical reagents such as antibodies.
The assay was performed in a cold room. If there was no additional description, the assays were performed in CO2-independent medium supplemented with 10% (v/v) h.i. FBS (medium-h.i. FBS) and 2mM L-glutamine. […] FBS to a final concentration of 120 µg mL^−1 (two times substrate stock). α-Chymotrypsin was prepared freshly. Fifteen micrograms of α-chymotrypsin was dissolved in 2 mL medium-h.i. FBS, and the pH was adjusted with 10 µL 1 M NaOH. Five millimole CsA, SLF, and CsA/SLF mixture were prepared in DMSO.
One or more flasks of cells (5 mL per flask, depending on the maximum culture density of each cell line) were harvested by centrifuging at 1000 rpm for 3 min. To remove PPIases from the supernatant originating from the culture, cells were washed one time with 2 mL CO2-independent medium and were resuspended in 1.6 mL of CO2-independent medium with substrate. The cells were centrifuged again, and then 800 µL of the supernatant was taken. The residual volume containing cells was suspended. Nineteen microliters of the cells or supernatant was pipetted to a non-binding 96-well microplate to measure PPIase activity. Four different conditions were performed. […] The plate was kept for 5 min without agitation. The activity measurements were triggered by adding 20 µL of α-chymotrypsin at time 0 min, followed by 1.5 min agitation, and the reaction was stopped after 2 min with 80 µL 20% acetic acid, followed by 15 rounds of up and down pipetting mixing. Four independent experiments were performed on the same day.

## CypA R55A: inactive mutant CypA R55A (a gift from Gunter Fischer)
Fibrin hydrogel
  effect on fibrin gelation as compared to the wild-type CypA: remarkably reduced

## CO[C@H]1C[C@@H]2CC[C@@H](C)[C@@](O)(O2)C(=O)C(=O)N2CCCC[C@H]2C(=O)O[C@H]([C@H](C)C[C@@H]2CC[C@@H](O)[C@H](OC)C2)CC(=O)[C@H](C)/C=C(\C)[C@@H](O)[C@@H](OC)C(=O)[C@H](C)C[C@H](C)/C=C/C=C/C=C/1C [rapamycin]
[1]; PBMCs treated with immunosuppressive drug
  effect on PACS in two-way mixed lymphocyte reaction: recover PACS
[1]; healthy donors ab mixed
  cell surface PPIase activity k, Exp. 1: 0.00035 s⁻¹
  cell surface PPIase activity k, Exp. 2: 0.00038 s⁻¹
  cell surface PPIase activity k, Exp. 3: 0.00034 s⁻¹
  cell surface PPIase activity k, Exp. 4: 0.0003 s⁻¹
  cell surface PPIase activity k, Mean: 0.0003425 s⁻¹
[1]; healthy donors ac mixed
  cell surface PPIase activity k, Exp. 2: 0.00041 s⁻¹
  cell surface PPIase activity k, Exp. 3: 0.00046 s⁻¹
  cell surface PPIase activity k, Exp. 4: 0.00043 s⁻¹
  cell surface PPIase activity k, Mean: 0.0004333 s⁻¹
[1]; healthy donors ad mixed
  cell surface PPIase activity k, Exp. 1: 0.00034 s⁻¹
  cell surface PPIase activity k, Exp. 2: 0.00028 s⁻¹
  cell surface PPIase activity k, Exp. 3: 0.00027 s⁻¹
  cell surface PPIase activity k, Exp. 4: 0.00037 s⁻¹
  cell surface PPIase activity k, Mean: 0.000315 s⁻¹
[1]; healthy donors bc mixed
  cell surface PPIase activity k, Exp. 1: 0.00037 s⁻¹
  cell surface PPIase activity k, Exp. 3: 0.00037 s⁻¹
  cell surface PPIase activity k, Exp. 4: 0.00034 s⁻¹
  cell surface PPIase activity k, Mean: 0.00036 s⁻¹
[1]; healthy donors bd mixed
  cell surface PPIase activity k, Exp. 1: 0.00043 s⁻¹
  cell surface PPIase activity k, Exp. 2: 0.0005 s⁻¹
  cell surface PPIase activity k, Exp. 3: 0.00053 s⁻¹
  cell surface PPIase activity k, Exp. 4: 0.00054 s⁻¹
  cell surface PPIase activity k, Mean: 0.0005 s⁻¹
[1]; healthy donors cd mixed
  cell surface PPIase activity k, Exp. 1: 0.00036 s⁻¹
  cell surface PPIase activity k, Exp. 2: 0.00026 s⁻¹
  cell surface PPIase activity k, Exp. 3: 0.00026 s⁻¹
  cell surface PPIase activity k, Exp. 4: 0.0002 s⁻¹
  cell surface PPIase activity k, Mean: 0.00027 s⁻¹
